Laboratory results from patent US10253039B2, “Inhibitors of bacterial DNA gyrase with efficacy against gram-negative bacteria” (priority 2014, dated 2019).
Values after ≈ are worked out from the molar mass of the structure shown. Read-outs that look alike come from different tables or passages of the source.

Legend:
[1] = tested on: E. coli BW25113 ΔtolC gyrR isolate GyrA His45Tyr; test: MIC against gyramide-resistant mutant; conditions: Escherichia coli, BW25113
Protocol: (§2) A microdilution method in 96-well plates was used and the MIC protocol established by the Clinical Laboratory Standards Institute was followed. From a growing subculture, a 1:10000 inoculum of each strain in Luria-Bertani media was prepared and aliquoted 100 μL in 4 columns of wells, except for the top row wells, which contained 200 μL of inoculum. […] The liquid in each of wells was mixed with a multi-channel pipet and 100 μL was transferred to the next well and mixed. The 2-fold dilution was continued down the 96-well plate until 100 μL was left, which was discarded. The plates were incubated at 37° C. with shaking for 16-18 hours. The MIC was determined as the lowest concentration that inhibited growth and had no turbidity by visual inspection.

[2] = tested on: E. coli BW25113 ΔtolC gyrR isolate GyrB Thr508Met; test: MIC against gyramide-resistant mutant; conditions: Escherichia coli, BW25113
Protocol: as §2

E. coli BW25113 ΔtolC = test: MIC, microdilution in 96-well plates; conditions: Escherichia coli, BW25113, E. coli BW25113 ΔtolC (parent strain); Table 4
[3] = tested on: E. coli BW25113 ΔtolC gyrR isolate GyrA Phe96Leu; test: MIC against gyramide-resistant mutant; conditions: Escherichia coli, BW25113
Protocol: as §2

[4] = tested on: E. coli BW25113 ΔtolC gyrR isolate GyrA Pro35Thr; test: MIC against gyramide-resistant mutant; conditions: Escherichia coli, BW25113
Protocol: as §2

[5] = tested on: E. coli BW25113 ΔtolC gyrR isolate GyrA Ser97Pro; test: MIC against gyramide-resistant mutant; conditions: Escherichia coli, BW25113
Protocol: as §2

Shigella flexneri = test: MIC, 20-strain panel; format: cell-based
Procedure, shortened: (§1)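 Inoculum 1:10000 (LB, log-phase subculture). Triplicate twofold dilutions plus DMSO column. 37° C., shaken, 16-18 h. Lowest non-turbid well = MIC. CLSI method.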

Streptococcus pyogenes = test: MIC, 20-strain panel; format: cell-based
Procedure, shortened: as §1

[6] = tested on: Staphylococcus epidermidis; test: MIC, 20-strain panel; format: cell-based
Procedure, shortened: as §1

E. coli MG1655 = test: MIC, 20-strain panel; format: cell-based; conditions: Escherichia coli, read-out: MIC
Procedure, shortened: as §1

[7] = tested on: Staphylococcus saprophyticus subsp. saprophyticus; test: MIC, 20-strain panel; format: cell-based
Procedure, shortened: as §1

[8] = tested on: Klebsiella pneumoniae subsp. pneumoniae; test: MIC, 20-strain panel; format: cell-based
Procedure, shortened: as §1

Streptococcus agalactiae = test: MIC, 20-strain panel; format: cell-based
Procedure, shortened: as §1

[9] = tested on: Salmonella enterica subsp. enterica typhimurium; test: MIC, 20-strain panel; format: cell-based
Procedure, shortened: as §1

[10] = tested on: Morganella morganii subsp. morganii; test: MIC, 20-strain panel; format: cell-based; conditions: Morganella morganii
Procedure, shortened: as §1

[11] = tested on: Staphylococcus aureus subsp. aureus; test: MIC, 20-strain panel; format: cell-based; conditions: H: Staphylococcus aureus subsp. aureus, read-out: MIC
Procedure, shortened: as §1

E. coli JW5503 (deltolC) = test: MIC, 20-strain panel; format: cell-based; conditions: Escherichia coli
Procedure, shortened: as §1

Enterobacter aerogenes = test: MIC, microdilution in 96-well plates; format: cell-based; conditions: Klebsiella aerogenes
Procedure, shortened: as §1

Acinetobacter baumannii = test: MIC, microdilution in 96-well plates; format: cell-based
Procedure, shortened: as §1

Pseudomonas aeruginosa = test: MIC, microdilution in 96-well plates; format: cell-based
Procedure, shortened: as §1

E. coli BW25113 = test: MIC, microdilution in 96-well plates; format: cell-based; conditions: Escherichia coli, read-out: MIC
Procedure, shortened: as §1

Edwardsiella tarda = test: MIC, microdilution in 96-well plates; format: cell-based
Procedure, shortened: as §1

[12] = Table 7, separate set of experiments
[13] = MG1655, E. coli MG1655, Table 7, separate set of experiments
[14] = E: Klebsiella pneumoniae subsp. pneumoniae
[15] = Klebsiella pneumoniae subsp. pneumoniae, Table 7, separate set of experiments
[16] = F: Salmonella enterica subsp. enterica Typhimurium
[17] = Salmonella enterica subsp. enterica typhimurium, Table 7, separate set of experiments
[18] = E. coli JW5503 (deltolC), Table 7, separate set of experiments
[19] = BW25113, E. coli BW25113, Table 7, separate set of experiments

SMILES: CO[C@@H]1[C@@H](OC(N)=O)[C@@H](O)[C@H](Oc2ccc3c(O)c(NC(=O)c4ccc(O)c(CC=C(C)C)c4)c(=O)oc3c2C)OC1(C)C [Novobiocin, novobiocin]
- MIC [1]: 1.25 µM (≈ 0.766 µg/mL)
- MIC [2]: 1.25 µM (≈ 0.766 µg/mL)
- MIC (E. coli BW25113 ΔtolC): 1.25 µM (≈ 0.766 µg/mL)
- MIC [3]: 1.25 µM (≈ 0.766 µg/mL)
- MIC [4]: 1.25 µM (≈ 0.766 µg/mL)
- MIC [5]: 1.25 µM (≈ 0.766 µg/mL)

SMILES: Cc1ccc(C#N)cc1S(=O)(=O)N[C@@H]1CCN(Cc2ccc(OC3CC3)cc2)C1 [Compound 113]
- MIC (Shigella flexneri; G: Shigella flexneri): ~8 µg/mL (≈ 19.4 µM)
- MIC (Shigella flexneri; [12]): 8 µg/mL (≈ 19.4 µM)
- MIC (Streptococcus pyogenes): > 8 µg/mL
- MIC [6]: > 8 µg/mL
- MIC (E. coli MG1655; MG1655, A: E. coli MG1655): ~8 µg/mL (≈ 19.4 µM)
- MIC (E. coli MG1655; [13]): 16 µg/mL (≈ 38.9 µM)
- MIC [7]: > 8 µg/mL
- MIC [8, 14]: > 8 µg/mL
- MIC [8, 15]: > 16 µg/mL
- MIC (Streptococcus agalactiae): > 8 µg/mL
- MIC [9, 16]: 2 µg/mL (≈ 4.86 µM)
- MIC [9, 17]: 4 µg/mL (≈ 9.72 µM)
- MIC [10]: > 16 µg/mL
- MIC [11]: > 8 µg/mL
- MIC (E. coli JW5503 (deltolC); C: E. coli JW5503 (deltolC)): 0.25 µg/mL (≈ 0.607 µM)
- MIC (E. coli JW5503 (deltolC); [18]): 0.125 µg/mL (≈ 0.304 µM)
- MIC (Enterobacter aerogenes): > 16 µg/mL
- MIC (Acinetobacter baumannii): > 16 µg/mL
- MIC (Pseudomonas aeruginosa): > 16 µg/mL
- MIC (E. coli BW25113; BW25113, B: E. coli BW25113): ~8 µg/mL (≈ 19.4 µM)
- MIC (E. coli BW25113; [19]): 8 µg/mL (≈ 19.4 µM)
- MIC (Edwardsiella tarda; D: Edwardsiella tarda): ~8 µg/mL (≈ 19.4 µM)
- MIC (Edwardsiella tarda; [12]): 16 µg/mL (≈ 38.9 µM)

SMILES: N#Cc1ccc(Cl)c(S(=O)(=O)N[C@@H]2CCN(Cc3ccc(OC4CC4)cc3)C2)c1 [Compound 77]
- MIC (Shigella flexneri; G: Shigella flexneri): 4 µg/mL (≈ 9.26 µM)
- MIC (Shigella flexneri; [12]): 4 µg/mL (≈ 9.26 µM)
- MIC (Streptococcus pyogenes): > 8 µg/mL
- MIC [6]: > 8 µg/mL
- MIC (E. coli MG1655; MG1655, A: E. coli MG1655): 8 µg/mL (≈ 18.5 µM)
- MIC (E. coli MG1655; [13]): 16 µg/mL (≈ 37 µM)
- MIC [7]: > 8 µg/mL
- MIC [8, 14]: ~8 µg/mL (≈ 18.5 µM)
- MIC [8, 15]: > 16 µg/mL
- MIC (Streptococcus agalactiae): > 8 µg/mL
- MIC [9, 16]: 1 µg/mL (≈ 2.32 µM)
- MIC [9, 17]: 2 µg/mL (≈ 4.63 µM)
- MIC [10]: > 16 µg/mL
- MIC [11]: > 8 µg/mL
- MIC (E. coli JW5503 (deltolC); C: E. coli JW5503 (deltolC)): 0.125 µg/mL (≈ 0.289 µM)
- MIC (E. coli JW5503 (deltolC); [18]): 0.125 µg/mL (≈ 0.289 µM)
- MIC (Enterobacter aerogenes): > 16 µg/mL
- MIC (Acinetobacter baumannii): > 16 µg/mL
- MIC (Pseudomonas aeruginosa): > 16 µg/mL
- MIC (E. coli BW25113; BW25113, B: E. coli BW25113): 8 µg/mL (≈ 18.5 µM)
- MIC (E. coli BW25113; [19]): 8 µg/mL (≈ 18.5 µM)
- MIC (Edwardsiella tarda; D: Edwardsiella tarda): 8 µg/mL (≈ 18.5 µM)
- MIC (Edwardsiella tarda; [12]): 16 µg/mL (≈ 37 µM)
